ChEMBL document CHEMBL1201862, “PubChem BioAssay data set” (2004)
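Five concentrations, 48 hours, 96-well plates. GI50 = concentration required for 50% inhibition of growth.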 Active and inactive are the calls of the source. No stated cut-off is given here; in the data, active = GI50 up to about 1.1 µM and inactive = higher.

Tests used:
Assay in all cases: NCI anticancer screen, dose series, 48 h
[1] = system: SF-268
[2] = system: SN12C
[3] = system: BT-549
[4] = system: HCC 2998
[5] = system: OVCAR-5
[6] = system: ACHN
[7] = system: MOLT-4
[8] = system: DU-145
[9] = system: UACC-62
[10] = system: HCT-116
[11] = system: CCRF-CEM
[12] = system: Malme-3M
[13] = system: SR
[14] = system: EKVX
[15] = system: NCI-H522
[16] = system: RXF 393
[17] = system: NCI-H460
[18] = system: OVCAR-3
[19] = system: HCT-15
[20] = system: M14
[21] = system: SK-MEL-5
[22] = system: SNB-19
[23] = system: UACC-257
[24] = system: SF-539
[25] = system: HOP-92
[26] = system: RPMI-8226
[27] = system: SW-620
[28] = system: HL-60
[29] = system: TK-10
[30] = system: A498
[31] = system: A549
[32] = system: UO-31
[33] = system: MDA-MB-435
[34] = system: CAKI-1
[35] = system: NCI-H23
[36] = system: K562
[37] = system: IGROV-1
[38] = system: U-251
[39] = system: PC-3
[40] = system: OVCAR-8
[41] = system: HOP-62
[42] = system: SK-OV-3
[43] = system: Hs-578T
[44] = system: SK-MEL-28
[45] = system: SF-295
[46] = system: SNB-75
[47] = system: LOX IMVI
[48] = system: OVCAR-4
[49] = system: T47D
[50] = system: KM12
[51] = system: SK-MEL-2
[52] = system: NCI-H226
[53] = system: COLO 205
[54] = system: 786-0
[55] = system: NCI/ADR-RES
[56] = system: HT-29
[57] = system: MDA-MB-231
[58] = system: MCF7

In the case of `Cc1noc(NC(=O)Nc2ccccc2F)c1C#N`, the GI50 [1] is reported as 12.4 µM (inactive), the GI50 [2] is reported as 16.1 µM (inactive) and the GI50 [3] is reported as > 100 µM (inactive). For the same molecule, the GI50 [4] was 2.12 µM (inactive), the GI50 [5] was > 28.4 µM (inactive) and the GI50 [6] was 22.2 µM (inactive). The GI50 [7] was 48.9 µM (inactive), the GI50 [8] was 49.8 µM (inactive) and the GI50 [9] was > 27.4 µM (inactive). For the same molecule, the GI50 [10] was 14.4 µM (inactive), the GI50 [11] was 70.6 µM (inactive) and the GI50 [12] was 28.8 µM (inactive). The GI50 [13] was 21.4 µM (inactive), the GI50 [14] was 11.6 µM (inactive) and the GI50 [15] was 7.93 µM (inactive). The GI50 [16] was > 66.8 µM (inactive), the GI50 [17] was 6.55 µM (inactive) and the GI50 [18] was 64.3 µM (inactive). For the same molecule, the GI50 [19] was 55.3 µM, the GI50 [20] was > 24.4 µM (inactive) and the GI50 [21] was 45.7 µM (inactive). The GI50 [22] was > 35 µM (inactive), the GI50 [23] was 30.9 µM (inactive) and the GI50 [24] was > 100 µM (inactive). For the same molecule, the GI50 [25] was > 100 µM (inactive), the GI50 [26] was > 74.8 µM (inactive) and the GI50 [27] was > 100 µM (inactive). The GI50 [28] was 84.5 µM (inactive), the GI50 [29] was > 27.2 µM (inactive) and the GI50 [30] was > 35 µM (inactive). For the same molecule, the GI50 [31] was 26.1 µM (inactive), the GI50 [32] was 0.918 µM (active) and the GI50 [33] was > 100 µM (inactive). For the same molecule, the GI50 [34] was > 100 µM (inactive), the GI50 [35] was > 81.3 µM (inactive) and the GI50 [36] was > 45.8 µM (inactive). For the same molecule, the GI50 [37] was > 91.6 µM (inactive), the GI50 [38] was 21.5 µM (inactive) and the GI50 [39] was > 21.5 µM (inactive). The GI50 [40] was > 90.8 µM (inactive), the GI50 [41] was 22.3 µM (inactive) and the GI50 [42] was > 100 µM (inactive). The GI50 [43] was > 34.4 µM (inactive), the GI50 [44] was > 100 µM (inactive) and the GI50 [45] was 41.5 µM (inactive). The GI50 [46] was 97.1 µM (inactive), the GI50 [47] was 58.5 µM (inactive) and the GI50 [48] was 69.8 µM (inactive). For the same molecule, the GI50 [49] was 18.3 µM (inactive), the GI50 [50] was > 100 µM (inactive) and the GI50 [51] was > 39.8 µM (inactive). For the same molecule, the GI50 [52] was > 100 µM (inactive), the GI50 [53] was > 100 µM (inactive) and the GI50 [54] was 7.69 µM (inactive). For the same molecule, the GI50 [55] was > 100 µM (inactive).
In the case of `C=C(CCC(C)C1CCC2C3=C(C(=O)CC21C)C1(C)CCC(=O)[C@@H](C)C1CC3=O)C(C)C(=O)O` (some centres not stated), the GI50 [1] is reported as > 100 µM (inactive), the GI50 [2] is reported as > 100 µM (inactive) and the GI50 [3] is reported as 47.3 µM (inactive). For the same molecule, the GI50 [4] was 98.2 µM (inactive), the GI50 [5] was > 100 µM (inactive) and the GI50 [6] was 29.9 µM (inactive). For the same molecule, the GI50 [7] was 40.2 µM (inactive), the GI50 [8] was > 100 µM (inactive) and the GI50 [9] was 49.5 µM (inactive). The GI50 [10] was 50.9 µM (inactive), the GI50 [11] was 22.2 µM (inactive) and the GI50 [56] was 87.7 µM (inactive). For the same molecule, the GI50 [12] was > 100 µM (inactive), the GI50 [13] was 35.2 µM (inactive) and the GI50 [14] was 78.7 µM (inactive). The GI50 [15] was 45.8 µM (inactive), the GI50 [16] was 18 µM (inactive) and the GI50 [17] was 34 µM (inactive). For the same molecule, the GI50 [57] was 39.3 µM (inactive), the GI50 [18] was 60.1 µM (inactive) and the GI50 [19] was 77.8 µM. For the same molecule, the GI50 [20] was > 100 µM (inactive), the GI50 [58] was > 100 µM (inactive) and the GI50 [21] was 31 µM (inactive). For the same molecule, the GI50 [22] was > 100 µM (inactive), the GI50 [23] was 46.9 µM (inactive) and the GI50 [24] was > 100 µM (inactive). The GI50 [25] was 30.8 µM (inactive), the GI50 [27] was 68.2 µM (inactive) and the GI50 [28] was 14.7 µM (inactive). For the same molecule, the GI50 [29] was > 100 µM (inactive), the GI50 [30] was > 100 µM (inactive) and the GI50 [31] was > 100 µM (inactive). For the same molecule, the GI50 [32] was 15.2 µM (inactive), the GI50 [33] was 65.6 µM (inactive) and the GI50 [34] was 30.7 µM (inactive). For the same molecule, the GI50 [35] was 38.9 µM (inactive), the GI50 [36] was 18.6 µM (inactive) and the GI50 [37] was 42.6 µM (inactive). The GI50 [38] was 56.5 µM (inactive), the GI50 [39] was 33.6 µM (inactive) and the GI50 [40] was 61 µM (inactive). The GI50 [41] was 35.3 µM (inactive), the GI50 [42] was 0.51 µM (active) and the GI50 [43] was > 100 µM (inactive). For the same molecule, the GI50 [44] was > 100 µM (inactive), the GI50 [45] was 53.2 µM (inactive) and the GI50 [46] was 42.4 µM (inactive). For the same molecule, the GI50 [47] was 17.4 µM (inactive), the GI50 [48] was 48.1 µM (inactive) and the GI50 [49] was 30.7 µM (inactive). For the same molecule, the GI50 [50] was 85.5 µM (inactive), the GI50 [51] was > 100 µM (inactive) and the GI50 [52] was > 100 µM (inactive). The GI50 [53] was 45.1 µM (inactive), the GI50 [54] was 18.3 µM (inactive) and the GI50 [55] was > 100 µM (inactive).
